How the values were obtained:
[1] = system: SARS-CoV2 in VERO E6 cells; assay: dual immunostaining of ACIS peptide and S-glycoprotein in infected VERO cells; format: cell-based; settings: 25 μM
Description: Further confirming the profound activity of KEPTIDE COVIDs in the attenuation of viral infection, a dual immunostaining analyses with ACIS peptide (green) and S-glycoprotein (red) was performed. DAPI staining was carried out to identify big nuclei of VERO cells. […] The result was further corroborated with a quantification study that clearly indicated a strong inhibition of viral load around ACIS-treated VERO cells (***p<0.0001) (FIG. 6B).
In order to evaluate the efficacy of the KEPTIDE COVID in suppressing the secondary or chronic infection of SARS-COV2, testing was performed by dual immunostaining procedure after six hours of viral infection. […] The effect was further confirmed with a quantitative analysis (FIG. 7B).
Double Immunocytochemistry analyses was performed where […] VERO Cells were plated per well in 8-well chamber slide. Cells were starved with serum-free DMEM media for 30 mins followed by the treatment with 25 μM FITC-labeled KEPTIDE COVID. After another 30 mins, unbound KEPTIDE COVIDs were aspirated and then added SARS-CoV2 at a dose of 1-2 PFU/cell. After 2 and 6 hours of virus treatment, viral cells were removed, VERO cells were fixed with 8% PFA and kept at 4° C. for overnight. […]

ACE-2 [2] = target: T1, ACE-2 (Homo sapiens, UniProt Q9BYF1); assay: surface plasmon resonance (SPR); settings: different concentrations of ACIS as analyte; hyperbolic binding curve
[3] = system: SARS-CoV2 (SARS CoV-2 USA_WA1/2020) in VERO cells; assay: Cytopathic effect (agar monolayer invasion) test of supernatants of treated VERO cells; format: cell-based
[4] = target: full-length ACE-2 protein (Homo sapiens, UniProt Q9BYF1); assay: BLItz label-free bio-layer interferometry assay; format: binding
Description: The ACIS peptide is specifically designed from the part of S-glycoprotein that is conserved only in the coronaviral family. Because of this specificity there is no possibility of any off-target effect. […] Blitz assay was used to confirm the specificity of ACIS peptide towards ACE-2 protein.
The experiment was performed based on manufacturer's instructions. Briefly, biotinylated ACIS peptide was bound to the BLItz streptavidin-linked biosensor. Different doses of ACE-2 enzyme were then charged to the ACIS peptide and then washed.
To further characterize the binding between ACIS and ACE-2, BLItz label-free bio-layer interferometry assay was performed. ACIS (0.25 μg/μL) was loaded to the sensor and titrated with different concentration of ACE-2 protein starting with the concentration as low as 10 nM. […] BLItz sensor was loaded with ACIS peptide (0.25 μg/μL) followed by titration with different concentrations of ACE-2 enzyme starting from nM range.
This can prevent or inhibit the infection of a host cell by SARS-CoV2 virus.

[5] = system: SARS-CoV2 in VERO E6 cells; assay: SARS-CoV2 plaque assay in VERO E6 cells; format: cell-based; settings: 25 μM pre-incubation 30 mins; compared to control; KEPTIDE1 at 1:20 dilution dose
[6] = target: T2, interaction between S-glycoprotein and ACE-2 protein (Homo sapiens, UniProt Q9BYF1); assay: kit-based luminometric inhibitor screen assay; format: biochemical, SARS-CoV2
T2 construct: purchased
Text: A kit-based luminometric inhibitor screen assay was used to evaluate the efficacy of the biotinylated and FITC labeled ACIS in inhibiting the interaction between S-glycoprotein and ACE-2 protein.

ACE-2 [7] = target: T1, ACE-2; assay: fluorescence polarization (FP) assay; format: binding; settings: FITC tag at C-terminal end (FIG. 3C)

Sequence of full-length ACE-2 protein (Q9BYF1 18-805): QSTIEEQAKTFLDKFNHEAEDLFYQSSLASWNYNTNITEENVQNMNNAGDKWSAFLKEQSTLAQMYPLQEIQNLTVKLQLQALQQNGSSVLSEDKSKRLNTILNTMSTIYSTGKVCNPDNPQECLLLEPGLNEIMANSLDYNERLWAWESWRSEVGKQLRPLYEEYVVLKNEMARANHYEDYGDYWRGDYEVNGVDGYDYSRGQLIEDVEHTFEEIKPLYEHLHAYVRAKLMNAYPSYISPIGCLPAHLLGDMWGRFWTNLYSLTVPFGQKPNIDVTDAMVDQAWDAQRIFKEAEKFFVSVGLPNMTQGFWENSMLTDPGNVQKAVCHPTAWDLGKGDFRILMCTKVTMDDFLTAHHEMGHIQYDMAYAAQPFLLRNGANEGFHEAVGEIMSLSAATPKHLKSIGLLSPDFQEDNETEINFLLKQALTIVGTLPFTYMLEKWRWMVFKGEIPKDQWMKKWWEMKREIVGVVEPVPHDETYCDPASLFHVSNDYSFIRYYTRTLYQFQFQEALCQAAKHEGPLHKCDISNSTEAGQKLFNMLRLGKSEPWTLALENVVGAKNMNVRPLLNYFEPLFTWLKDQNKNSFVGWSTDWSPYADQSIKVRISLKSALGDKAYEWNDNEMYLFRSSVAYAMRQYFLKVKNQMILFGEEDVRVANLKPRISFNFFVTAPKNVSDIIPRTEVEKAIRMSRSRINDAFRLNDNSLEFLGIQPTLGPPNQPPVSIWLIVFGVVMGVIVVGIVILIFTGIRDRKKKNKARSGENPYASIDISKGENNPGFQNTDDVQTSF
T1 sequence (Q9BYF1 18-805): as above
T2 sequence (Q9BYF1 18-740): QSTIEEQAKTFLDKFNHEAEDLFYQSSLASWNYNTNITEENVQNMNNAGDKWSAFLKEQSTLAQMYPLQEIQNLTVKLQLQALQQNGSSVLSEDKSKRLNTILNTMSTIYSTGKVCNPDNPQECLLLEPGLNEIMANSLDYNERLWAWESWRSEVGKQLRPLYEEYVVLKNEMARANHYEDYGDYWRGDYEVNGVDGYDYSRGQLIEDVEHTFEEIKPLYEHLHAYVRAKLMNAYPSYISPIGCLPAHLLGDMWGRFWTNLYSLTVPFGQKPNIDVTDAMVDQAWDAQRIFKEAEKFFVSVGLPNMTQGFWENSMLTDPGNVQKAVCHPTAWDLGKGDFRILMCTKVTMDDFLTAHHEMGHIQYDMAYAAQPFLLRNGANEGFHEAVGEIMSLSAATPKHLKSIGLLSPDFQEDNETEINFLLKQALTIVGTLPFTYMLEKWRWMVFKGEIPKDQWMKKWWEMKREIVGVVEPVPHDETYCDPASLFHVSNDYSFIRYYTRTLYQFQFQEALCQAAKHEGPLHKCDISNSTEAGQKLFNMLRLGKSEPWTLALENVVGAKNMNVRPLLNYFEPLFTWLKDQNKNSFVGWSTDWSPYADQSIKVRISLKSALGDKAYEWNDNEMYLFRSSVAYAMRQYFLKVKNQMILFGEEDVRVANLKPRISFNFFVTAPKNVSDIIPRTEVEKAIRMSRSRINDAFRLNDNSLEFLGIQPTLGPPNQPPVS

Structure (SMILES)	inhibition of viral particles, secondary or chronic infection ([1]; 6 hours of infection)	inhibition of entry of viral particles, acute infection ([1]; two hours of SARS-CoV2 treatment (1-2 PFU))	interaction with ACE-2 enzyme (binding curve) (ACE-2 [2])	damage of agar monolayer (loss of CV staining) by viral supernatants of treated VERO cells [3]	Kd [4]	minimum concentration with dose-dependent binding ([4]; sensor loaded with ACIS 0.25 μg/μL, titrated with ACE-2)	increase in protection, densitometric quantification of plaque assay [5]	hillslope of the inhibition plot [6]	concentration at which peptide binds with ACE-2 (ACE-2 [7])
CC(C)[C@H](NC(=O)CNC(=O)[C@H](CC(N)=O)NC(=O)[C@@H](NC(=O)[C@@H]1CCCN1C(=O)[C@H](CCC(N)=O)NC(=O)[C@@H](N)Cc1ccccc1)[C@@H](C)O)C(=O)NCC(=O)N[C@@H](Cc1ccc(O)cc1)C(=O)N[C@@H](CCC(N)=O)C(=O)N1CCC[C@H]1C(=O)N[C@@H](Cc1ccc(O)cc1)C(=O)NCC(=O)O [ACIS peptide, FQPTNGVGYQPYG]	continued to repel viral particles significantly from VERO cells	substantially inhibit the entry of viral particles	strong interaction with ACE-2 enzyme	significant damage in agar monolayer	115 nM	13 nM			
CC(C)[C@H](NC(=O)CNC(=O)[C@H](CC(N)=O)NC(=O)[C@@H](NC(=O)[C@@H]1CCCN1C(=O)[C@H](CCC(N)=O)NC(=O)[C@@H](N)Cc1ccccc1)[C@@H](C)O)C(=O)NCC(=O)N[C@@H](Cc1ccc(O)cc1)C(=O)N[C@@H](CCC(N)=O)C(=O)N1CCC[C@H]1C(=O)N[C@@H](Cc1ccc(O)cc1)C(=O)NCC(=O)N[C@@H](CCCCNC(=S)Nc1ccc2c(c1)C(=O)OC21c2ccc(O)cc2Oc2cc(O)ccc21)C(=O)O [KEPTIDE2]							three-fold increase in protection	−2.4	6.376 nM

— patent US12037363B2, “Peptides for Covid-19 prevention and treatment” (SOTIRA COVID, LLC, priority 2020, dated 2024)
